Laboratory results as given in patent US6399632B1, “Method of providing an antihistaminic effect in a hepatically impaired patient” (Merrell Pharmaceuticals Inc., priority 1992, dated 2002).
Values belong to the molecule of their own block, whether it stands above or below them.

Key:
[1] = plasma concentrations of unchanged terfenadine and acid metabolite formation in subjects; format: in vivo
[2] = to two primary metabolites; cited from earlier work
[3] = target: histamine H1-receptor (Homo sapiens, UniProt P35367); conditions: primary metabolites of terfenadine; cited from earlier work
Chain of histamine H1-receptor (P35367 whole entry, species assumed): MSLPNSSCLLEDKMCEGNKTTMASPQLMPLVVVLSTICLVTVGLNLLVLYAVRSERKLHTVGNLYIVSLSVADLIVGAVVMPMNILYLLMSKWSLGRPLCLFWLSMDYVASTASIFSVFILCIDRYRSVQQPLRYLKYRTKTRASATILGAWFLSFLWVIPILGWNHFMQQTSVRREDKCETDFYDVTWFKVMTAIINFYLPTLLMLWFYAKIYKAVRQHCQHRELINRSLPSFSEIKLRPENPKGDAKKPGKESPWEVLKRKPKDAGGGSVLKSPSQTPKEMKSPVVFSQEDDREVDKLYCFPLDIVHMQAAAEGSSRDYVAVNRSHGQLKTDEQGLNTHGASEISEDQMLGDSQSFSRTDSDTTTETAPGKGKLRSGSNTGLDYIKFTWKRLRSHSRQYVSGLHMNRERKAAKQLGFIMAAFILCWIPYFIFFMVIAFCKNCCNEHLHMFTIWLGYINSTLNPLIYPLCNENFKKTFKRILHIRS

[4] = system: patients with impaired hepatic function; conditions: recommended dose of terfenadine, or antihistaminic amount of acid metabolite
[5] = cases of hepatic impairment, preliminary information

rate of acid metabolite formation [1, 5]: decreased | unchanged terfenadine plasma concentrations ([1]; subjects with normal hepatic function): have not been detected
SMILES: CC(C)(C)c1ccc(C(O)CCCN2CCC(C(O)(c3ccccc3)c3ccccc3)CC2)cc1 (stereo not drawn) [Terfenadine, α-[4-(1,1-dimethylethyl)phenyl]-4-(hydroxydiphenylmethyl)-1-piperidinebutanol]
unchanged terfenadine plasma concentrations [1, 5]: significant concentrations of unchanged terfenadine can be detected | first pass metabolism [2]: 99%

SMILES: OC(c1ccccc1)(c1ccccc1)C1CCNCC1 [dealkylated metabolite]
activity of metabolite (antihistaminic) [3]: inactive

SMILES: CC(C)(C(=O)O)c1ccc(C(O)CCCN2CCC(C(O)(c3ccccc3)c3ccccc3)CC2)cc1 (stereo not drawn) [terfenadine acid metabolite, 4-[l-hydroxy-4-[4-(hydroxydiphenylmethyl)-1-piperidinyl]butyl]-α,α-dimethyl-benzeneacetic acid]
cardiac events of QT prolongation and/or ventricular tachycardia [4]: will not experience cardiac events of QT prolongation and/or ventricular tachycardia
